Values of other authors, collected in patent US20060177392A1, “Oil-based composition for acne” (priority 2005, published 2006).

Experiments:
[1] = typical dose 0.5 to 2 mg/kg body weight per 24 hours; human fetal abnormalities and spontaneous abortions
[2] = taken internally

CC1=C(/C=C/C(C)=C/C=C/C(C)=C\C(=O)O)C(C)(C)CCC1 [Accutane, 13-cis-retinoic acid]
Teratogenicity [1]: often teratogenic

Vitamin A
Single megadose that can induce brain swelling, headache, drowsiness, vomiting, and/or death ([2]; single megadose): 1,500,000 IU | Sustained dose that may be toxic ([2]; sustained doses): over 50,000 IU
